Data: US12306194B2, “Reagent for fluorescence imaging of lipid droplets in cell and tissue” (NATIONAL UNIVERSITY CORPORATION GUNMA UNIVERSITY, priority 2019, dated 2025)
Values joined by “and” are separate entries in the source; they are usually repeats but may differ in a detail not shown here. Equal entries are not always repeated.

How the values were obtained:
[1] = Measurement of maximum absorption wavelength, maximum fluorescence wavelength and fluorescence quantum yield in solvents; assay type: physicochemical
Protocol: Using a luminescent quantum yield measurement apparatus ([…]-01, manufactured by Hamamatsu Photonics K.K.), the maximum absorption wavelength (λabs/nm), the maximum fluorescence wavelength (λflu/nm), and the fluorescence quantum yield (Φf) of the compound in each solvent were measured. The absorption spectrum was measured using an ultraviolet and visible spectrophotometer (Ubest-550, manufactured by JASCO Corporation), and the fluorescence emission spectrum was measured using a fluorescence spectrophotometer (F-7000, manufactured by Hitachi, Ltd.)

[2] = tested on: lipid droplets in HeLa cells; assay: Fluorescence imaging of lipid droplets in oleic acid-treated HeLa cells; assay type: cell-based
Source text: Since LipiDye requires use of an excitation wavelength of about 405 nm, there is a concern about phototoxicity to cells in cases of long observation.

[3] = tested on: 3T3-L1 cells (adipocytes); assay: Intracellular photostability under excitation light in 3T3-L1 cells; assay type: cell-based
Protocol: (§1) Using a fluorescence microscope (IX71, manufactured by Olympus Corporation), fluorescence imaging images of cells were acquired over time, and the photostability (It/I0) and the retention property were measured.
The photostability and the retention property are important factors in long-term measurement for, for example, tracing the processes of formation, fusion, and degradation of lipid droplets. Each fluorescent reagent was added to 3T3-L1 cells (adipocytes) to a final concentration of 100 nM, and the cells were cultured for 30 minutes. After washing the cells, the cells were irradiated with an excitation light required for imaging (450 to 500 nm; for LipiDye, an excitation wavelength of 400 to 440 nm), to evaluate the photostability. By regarding the time immediately after the irradiation as Second 0, imaging images were acquired at 20-second intervals for analysis of the image intensity.

[4] = tested on: 3T3-L1 cells (adipocytes); assay: Intracellular retention property in 3T3-L1 cells; assay type: cell-based
Protocol: as §1
For evaluation of the intracellular retention property of each reagent, each fluorescent reagent was added to 3T3-L1 cells (adipocytes) to a final concentration of 100 nM (for Lipi-Green, 500 nM), and imaging images were acquired after 30 minutes of culture and 24 hours after washing away of the reagent.

[5] = tested on: adipose tissue and lipid droplets; assay: Fluorescence imaging of adipose tissues and lipid droplets in a mouse; assay type: in vivo, mouse (BALB/cAJcl); conditions: 50 nmol
Protocol: Fluorescence imaging of lipid droplets in a body tissue, and of an adipose tissue, using PC6S is described below. […] Therefore, PC6S cannot be administered to mice. In view of this, 5 mM stock solution was added (at 10% in terms of the volume ratio) to physiological saline supplemented with 10% bovine serum albumin. […] Regarding administration of MNs-NB, a stock solution in DMSO is directly administered to mice. Since administration of DMSO may cause death of mice from shock, the administration method in the present invention is thought to be a safer method. Here, 100 to 200 μL of 500 μM solution (50 to 100 nmol) was administered to the tail vein of a mouse under anesthesia, and a fluorescence imaging experiment was carried out using a confocal laser microscope (excitation wavelength, 488 nm; monitoring wavelength, 510 to 560 nm). In the present experiment, a microscope capable of acquiring fluorescence lifetime images as well as fluorescence intensity images (FLIM: fluorescence lifetime imaging microscope) (Simple-Tau-150-DX; Becker & Hickl) was used. The animal experiment was carried out in accordance with the animal experiment safety regulations in Gunma University.
In an individual, various adipose tissues and lipid droplets are present. Their imaging was carried out using PC6S. […]

[6] = tested on: fixed HeLa cells; assay: Fluorescence imaging of fixed HeLa cells; assay type: cell-based; conditions: 100 nM, 30 minutes, HeLa fixed in 4% paraformaldehyde-phosphate buffer
Protocol: The fluorescence imaging reagent of the present invention is applicable to, and allows the detection in, unfixed biological samples and living bodies. The reagent is, however, also useful for fixed samples. HeLa cells cultured in the presence of 400 μM oleic acid for 48 hours were fixed in 4% paraformaldehyde-phosphate buffer for 20 minutes, and PC6S was added thereto to a final concentration of 100 nM, followed by performing culture for 30 minutes, washing the cultured cells, and then acquiring a fluorescence imaging image using an inverted fluorescence microscope in the same manner as in Example 2.

[7] = tested on: lipid droplets in HeLa cells; assay: Multicolor imaging and time-course imaging of lipid droplet formation in HeLa cells; assay type: cell-based
Protocol: Further, HeLa cells were cultured for 30 minutes in a medium to which PC6S was added to a final concentration of 100 nM, and PC6S unincorporated in the cells was removed, followed by acquiring a fluorescence imaging image (Hour 0) using an inverted fluorescence microscope in the same manner as in Example 2. The cells were cultured in the presence of 400 μM oleic acid for 24 hours, and their fluorescence imaging images were acquired 4, 8, 12, and 24 hours later.

[8] = tested on: HeLa cells; assay: Cytotoxicity with cell growth-cytotoxicity measurement kit CCK-8; assay type: cell-based; conditions: 0.1, 0.5, 1, 10, 20, 40 or 50 μM, 24 hours
Protocol: Further, HeLa cells were plated on a 96-well plate, and allowed to adhere to a glass surface. Thereafter, PC6S was added to the medium (to a final concentration of 0.1, 0.5, 1, 10, 20, 40, or 50 μM), and culture was performed for 24 hours. After washing, cytotoxicity was evaluated using a cell growth-cytotoxicity measurement kit CCK-8. Two hours after the addition of the reagent, the absorbance was measured.

Structure (SMILES): CCN(CC)c1ccc2cc3cc(-c4nc5ccccc5s4)c(=O)oc3cc2c1 [PC6S, 3-(Benzo[d]thiazol-2-yl)-8-(diethylamino)-2H-benzo[g]chromen-2-one]
- Φf (fluorescence quantum yield) ([1]; in Bu2O (dibutyl ether)): 0.88
- λmax abs (maximum absorption wavelength) ([1]; in Bu2O (dibutyl ether)): 468 nm
- λmax flu (maximum fluorescence wavelength) ([1]; in Bu2O (dibutyl ether)): 538 nm
- Φf (fluorescence quantum yield) ([1]; in DMSO): 0.83
- λmax abs (maximum absorption wavelength) ([1]; in DMSO): 504 nm
- λmax flu (maximum fluorescence wavelength) ([1]; in DMSO): 642 nm
- Φf (fluorescence quantum yield) ([1]; in EtOAc): 0.84
- λmax abs (maximum absorption wavelength) ([1]; in EtOAc): 483 nm
- λmax flu (maximum fluorescence wavelength) ([1]; in EtOAc): 585 nm
- Φf (fluorescence quantum yield) ([1]; in MeCN): 0.80
- λmax abs (maximum absorption wavelength) ([1]; in MeCN): 492 nm and 493 nm
- λmax flu (maximum fluorescence wavelength) ([1]; in MeCN): 625 nm
- fluorescence quantum yield ([1]; in any of the solvents of Table 1): not less than 0.8
- Φf (fluorescence quantum yield) ([1]; in n-Hexane): 0.89
- λmax abs (maximum absorption wavelength) ([1]; in n-Hexane): 455 nm
- λmax flu (maximum fluorescence wavelength) ([1]; in n-Hexane): 498 nm
- imaging of lipid droplets / lipid droplet selectivity in HeLa cells ([2]; 100 nM reagent, 30 minutes, 400 μM oleic acid 48 hours): capable of clear imaging of lipid droplets
- fluorescence intensity of HeLa cells ([2]; 100 nM reagent, 30 minutes, compared with BODIPY493/503 or Lipi Green): higher fluorescence intensities
- Brightness in cells ([2]; summary grade, Table 3): ⊚
- Selectivity for lipid droplets ([2]; summary grade, Table 3): ◯
- photostability (fluorescence intensity ratio It/I0 against irradiation time) ([3]; 100 nM, 3T3-L1 cells, relative to the commercially available reagents): highest photostability
- Photostability ([3]; summary grade, Table 3): ⊚
- intracellular retention property ([4]; 100 nM (Lipi-Green 500 nM), 3T3-L1 cells, 24 hours after washing away of the reagent): high intracellular retention properties
- intracellular retention property ([4]; summary grade, Table 3): ⊚
- fluorescence imaging of kidney [5]: small lipid droplets distributed in tubular cells could be imaged
- fluorescence imaging of subcutaneous, abdominal, pericardial adipose tissue, skeletal muscle, cardiac muscle, kidney [5]: Fluorescence derived from PC6S was found from sites containing lipid accumulated therein
- fluorescence detection in fixed cells [6]: fluorescence of PC6S could be detected also in the fixed HeLa cells
- imaging of lipid droplet formation over time ([7]; 100 nM, then 400 μM oleic acid, 4, 8, 12 and 24 hours): the process of gradual formation of lipid droplets could be imaged over time
- multicolor imaging ([7]; combined use with Hoechst 33342 and Mito tracker red): multicolor imaging was possible
- cytotoxicity [8]: no remarkable cytotoxicity was found at any concentration
